Assay results reported in patent US5395610A, “Agents for potentiating the effects of antitumor agents and combating multiple drug resistance” (Burroughs-Wellcome Co., priority 1989, dated 1995).
Structures can show the parent of a compound that is named as a salt.

Experiments:
[1] = system: Chinese hamster ovary (CHO) cells, drug resistant C5S32; assay: In vitro cytotoxicity / potentiation of Actinomycin D in Chinese hamster ovary cells, drug resistant C5S32 (MTT); assay type: cell-based; conditions: 96 h, fraction of Act D alone (1.00)
[2] = as above; assay type: cell-based; conditions: hamster, cho c5s32 cells, fraction of untreated cultures (1.00), read-out: Cytotoxicity, normalized absorbance, Drug Resistant C5S32, 0 (no Act D); for viability at 96 h, 1 µM: 1 μM potentiating agent alone; for viability at 96 h, 10 µM: 10 μM potentiating agent alone
[3] = In vitro cytotoxicity / potentiation of Actinomycin D in human KB epidermoid carcinoma cells, drug resistant KB V-1 (MTT); assay type: cell-based; conditions: human, kb v-1 cells, fraction of untreated cultures, read-out: Cytotoxicity, normalized absorbance, Drug Resistant KB V-1, 0 (no Act D); for viability at 96 h, 1 µM: 1 μM potentiating agent alone; for viability at 96 h, 10 µM: 10 μM potentiating agent alone
[4] = system: human KB epidermoid carcinoma cells, drug resistant KB V-1; assay: as above; assay type: cell-based; conditions: 96 h, fraction of Act D alone
in vitro = assay type: cell-based, Chinese hamster; conditions: hamster, cho auxb1 cells
[5] = In vitro cytotoxicity / potentiation of Actinomycin D in human KB epidermoid carcinoma cells, wildtype KB 3-1 (MTT); assay type: cell-based; conditions: human, kb 3-1 cells, fraction of untreated cultures, read-out: Cytotoxicity, normalized absorbance, Wildtype KB 3-1, 0 (no Act D); for viability at 96 h, 1 µM: 1 μM potentiating agent alone; for viability at 96 h, 10 µM: 10 μM potentiating agent alone
[6] = system: human KB epidermoid carcinoma cells, wildtype KB 3-1; assay: as above; assay type: cell-based; conditions: 96 h, fraction of Act D alone
[7] = 1 μM potentiating agent + Act D 0.5 μM
[8] = 10 μM potentiating agent + Act D 0.5 μM
[9] = 1 μM potentiating agent + Act D 20 nM
[10] = 10 μM potentiating agent + Act D 20 nM
[11] = 1 μM potentiating agent + Act D 0.1 nM
[12] = 10 μM potentiating agent + Act D 0.1 nM

Compound | Synergism with Actinomycin D, normalized absorbance, Drug Resistant C5S32, +ACT D [1, 7] | Synergism with Actinomycin D, normalized absorbance, Drug Resistant C5S32, +ACT D [1, 8] | viability at 96 h, 1 µM [2] [%] | viability at 96 h, 10 µM [2] [%] | viability at 96 h, 1 µM [3] [%] | viability at 96 h, 10 µM [3] [%] | Synergism with Actinomycin D, normalized absorbance, Drug Resistant KB V-1, +ACT D [4, 9] | Synergism with Actinomycin D, normalized absorbance, Drug Resistant KB V-1, +ACT D [4, 10] | viability at 96 h, 1 µM (in vitro) [%] | viability at 96 h, 10 µM (in vitro) [%] | viability at 96 h, 1 µM [5] [%] | viability at 96 h, 10 µM [5] [%] | Synergism with Actinomycin D, normalized absorbance, Wildtype KB 3-1, +ACT D [6, 11] | Synergism with Actinomycin D, normalized absorbance, Wildtype KB 3-1, +ACT D [6, 12]
CN(C)CC/C=C1/c2ccccc2COc2cc(Br)ccc21 [(E)] | 0.66 | 0.35 | 85 | 48 | 88 | 45 | 0.74 | 0.01 | 100 | 100 | 89 | 89 | 0.85 | 0.77
Brc1ccc2c(c1)/C(=C\CCN1CCCC1)c1cc(Br)ccc1OC2 [(R), (E)-1-[3-(2,9-dibromo-6,11-dihydrodibenz [b,e]-oxepin-11-ylidene)propyl]pyrrolidine] | 0.52 | 0.11 | 50 | 11 | 87 | 6 | 0.90 | 0.02 | 99 | 95 | 78 | 36 | 0.84 | 0.34
Brc1ccc2c(c1)/C(=C\CN1CCCC1)c1ccccc1CO2 [(F), (Z)-1-[2-(2-Bromo-6,11-dihydrodibenz [b,e]-oxepin-11-ylidene)ethyl]pyrrolidine] | 0.68 | 0.19 | 82 | 28 | 80 | 59 | 0.77 | 0.12 | 100 | 88 | 84 | 78 | 0.86 | 0.68
Brc1cccc2c1OCc1ccccc1C2=CCN1CCCC1 [(J), 1-[2-(4-Bromo-6,11-dihydrodibenz[b,e]oxepin-11-ylidine)-ethyl]pyrrolidine 60% Z, 40% E] | 0.66 | 0.12 | 80 | 29 | 88 | 45 | 0.74 | 0.01 | 100 | 100 | 89 | 80 | 0.85 | 0.77
Fc1ccc2c(c1)/C(=C/CCN1CCCC1)c1ccccc1CO2 [(S), (E)-1-[3-(2-fluoro-6,11-dihydrodibenz [b,e]-oxepin-11-ylidene)propyl]pyrrolidine] | 0.94 | 0.58 | 100 | 100 | 89 | 72 | 0.84 | 0.48 | 91 | 88 | 77 | 67 | 0.79 | 0.72
CN(C)CC/C=C1/c2cc(Br)ccc2COc2ccc(Br)cc21 [(U), (Z)-3-(2,9-Dibromo-6,11-dihydrodibenz [b,e]-oxepin-11-ylidene)-N,N-dimethylpropylamine] | 0.93 | 0.24 | 94 | 74 | – | – | – | – | 84 | 79 | – | – | – | –
C(/CN1CCCC1)=C1\c2ccccc2COc2ccccc21 [(H), hydrochloride] | 0.95 | 0.51 | 82 | 53 | – | – | – | – | 100 | 94 | – | – | – | –
CN(C)CCC=C1c2ccccc2COc2ccccc21 [(W), doxepin, reference compound] | 0.86 | 0.48 | 98 | 55 | – | – | – | – | 100 | 100 | – | – | – | –
CN(C)CC/C=C1\c2cc(Br)ccc2COc2ccc(Br)cc21 [(V), (E)-3-(2,9-Dibromo-6,11-dihydrodibenz [b,e]-oxepin-11-ylidene)-N,N-dimethylpropylamine] | 0.87 | 0.20 | 91 | 75 | – | – | – | – | 86 | 77 | – | – | – | –
Brc1ccc2c(c1)/C(=C/CCN1CCCC1)c1ccccc1OC2 [(M), (Z)-1-[3-(9-Bromo-6,11-dihydrodibenz [b,e]-oxepin-11-ylidene)propyl]pyrrolidine] | 0.83 | 0.35 | 86 | 100 | 95 | 65 | 1.00 | 0.31 | 79 | 84 | 100 | 96 | – | –
CCN(CC)CC/C=C1\c2ccccc2COc2ccc(Br)cc21 [(N), (E) -3-(2-Bromo-6,11-dihydrodibenz [b,e]oxepin-11-ylidene)-N, N-diethylpropylamine] | 0.85 | 0.33 | 100 | 80 | – | – | – | – | 86 | 83 | – | – | – | –
